The source of these data is patent publication US5703241A, “Inhibitor of farnesyl-protein transferase” (Merck & Co., Inc., priority 1996, dated 1997).

Assay [1] has as its system farnesyl-protein transferase in white blood cells. Nature of the assay: In vivo pharmacodynamic effects of farnesyl-protein transferase inhibitors in mammalian white blood cells. The following applies: following a single administration of the compound. As for the experimental part:
In vivo pharmacodynamic effects of farnesyl-protein transferase inhibitors in mammalian white blood cells
The test mammal (beagle, Cynomolgus monkey, Rhesus monkey or African green monkey) is dosed by an IV, PO or suppository dose of a given concentration of drug in a suitable vehicle, such as IV:5% EtOH/citrate buffered saline, PO:50 mmol citric acid in water and suppository: 17.7% compound, 38% hydrous lactose; 44.3% PEG 8000.
Following drug dosing, the animals are bled at times t=0, 5 mins., 15 mins., 30 mins., 60 mins., 90 mins., 180 mins.(3 hours), 270 mins. (4.5 hours), 360 mins. (6 hours) and 1440 mins. (24 hours) by withdrawing 3 mL of blood into a sodium heparin vacutainer tube and placing the drawn blood immediately on ice. The vacutainer tubes are then spun at 2800 rpm in a table top centrifuge for 5 minutes at 4 degrees. Following the spin, the upper plasma layer is withdrawn from the vacutainer tube leaving an 1/8" of plasma on top of the blood pellet. The vacutainer tubes and plasma tubes are then put into dry ice for a quick freeze and once frozen, the samples are stored at -70° degrees.
For evaluation of the white blood cells, the frozen vacutainer tube is broken at the bottom utilizing a triangular metal file, and the frozen pellet of blood is removed (prior to breaking the tube it can warmed slightly in a 30° bath taking precautions not to melt the pellet). […]

The target of another assay is T1, human FPTase (Homo sapiens, UniProt P49354+P49356).
T1 construct: made in house
Nature of the assay: In vitro inhibition of human farnesyl-protein transferase ([3H]-FPP incorporation into Ras-CVIM). In kind it is biochemical. The note with it: 100 nM Ras-CVIM, 30 min, read-out: IC50, inhibitory activity against human FPTase.

Molecules are shown by their SMILES.

Consider `COc1ccccc1CN(CC(=O)N[C@@H](CCSC)C(=O)OC(C)C)C[C@@H]1CCCN1C(=O)CCc1c[nH]cn1` [Example 1, N-[1-(1H-Imidazol-4-propionyl)pyrrolidin-2(S)-ylmethyl]-N-(2-methoxybenzyl) glycyl-methionine isopropyl ester], for which the “inhibition of FPTase in white blood cells of mammals” value in assay [1] is “sustained inhibition of FPTase in white blood cells”. The term IC50 denotes the concentration at which inhibition is half-maximal. Regarding `COc1ccccc1CN(CC(=O)N[C@@H](CCSC)C(=O)O)C[C@@H]1CCCN1C(=O)CCc1c[nH]cn1` [Example 2, N-[1-(1H-Imidazol-4-propionyl)pyrrolidin-2(S)-ylmethyl]-N-(2-methoxybenzyl)glycyl-methionine], on human FPTase, the IC50 was under 10 µM.
